ChEMBL document CHEMBL3774345, “Synthesis of new diarylamides with pyrimidinyl pyridine scaffold and evaluation of their anti-proliferative effect on cancer cell lines” (Bioorg Med Chem Lett, 2016)

Legend:
[1] = Cytotoxicity against human SF268 cells assessed as cell growth at 10^-8 M after 24 hrs by SRB assay; type: functional; conditions: SF-268, 24 h, read-out: Activity
[2] = Cytotoxicity against human RPMI8226 cells after 24 hrs by SRB assay; type: functional; conditions: RPMI-8226, 24 h
A498 = assay: Cytotoxicity against human A498 cells assessed as cell growth at 10^-8 M after 24 hrs by SRB assay; type: functional; conditions: A498, 24 h, read-out: Activity
NCI-H460 [3] = assay: Cytotoxicity against human NCI-H460 cells assessed as cell growth at 10^-6 M after 24 hrs by SRB assay; type: functional; conditions: NCI-H460, 24 h, read-out: Activity
[4] = Cytotoxicity against human SKOV3 cells assessed as cell growth at 10^-7 M after 24 hrs by SRB assay; type: functional; conditions: SK-OV-3, 24 h, read-out: Activity
[5] = Cytotoxicity against human SNB75 cells assessed as cell growth at 10^-4 M after 24 hrs by SRB assay; type: functional; conditions: SNB-75, 24 h, read-out: Activity
[6] = Cytotoxicity against human IGROV1 cells assessed as cell growth at 10^-7 M after 24 hrs by SRB assay; type: functional; conditions: IGROV-1, 24 h, read-out: Activity
SK-MEL-5 = assay: Cytotoxicity against human SK-MEL-5 cells assessed as cell growth at 10^-8 M after 24 hrs by SRB assay; type: functional; conditions: SK-MEL-5, 24 h, read-out: Activity
KM12 [7] = assay: Cytotoxicity against human KM12 cells assessed as cell growth at 10^-6 M after 24 hrs by SRB assay; type: functional; conditions: KM12, 24 h, read-out: Activity
[8] = Cytotoxicity against human COLO205 cells after 24 hrs by SRB assay; type: functional, cell-based; conditions: COLO 205, 24 h
K562 = assay: Cytotoxicity against human K562 cells assessed as cell growth at 10^-7 M after 24 hrs by SRB assay; type: functional; conditions: K562, 24 h, read-out: Activity
[9] = Cytotoxicity against human SNB75 cells assessed as cell growth at 10^-6 M after 24 hrs by SRB assay; type: functional; conditions: SNB-75, 24 h, read-out: Activity
NCI-H226 = assay: Cytotoxicity against human NCI-H226 cells assessed as cell growth at 10^-5 M after 24 hrs by SRB assay; type: functional; conditions: NCI-H226, 24 h, read-out: Activity
[10] = Cytotoxicity against human SF295 cells assessed as cell growth at 10^-7 M after 24 hrs by SRB assay; type: functional; conditions: SF-295, 24 h, read-out: Activity
[11] = Cytotoxicity against human SF295 cells assessed as cell growth at 10^-8 M after 24 hrs by SRB assay; type: functional; conditions: SF-295, 24 h, read-out: Activity
[12] = Cytotoxicity against human OVCAR3 cells assessed as cell growth at 10^-7 M after 24 hrs by SRB assay; type: functional; conditions: OVCAR-3, 24 h, read-out: Activity
[13] = Cytotoxicity against human UO31 cells assessed as cell growth at 10^-5 M after 24 hrs by SRB assay; type: functional; conditions: UO-31, 24 h, read-out: Activity
[14] = Cytotoxicity against human NCI-ADR-RES cells assessed as cell growth at 10^-7 M after 24 hrs by SRB assay; type: functional; conditions: read-out: Activity
KM12 [15] = assay: Cytotoxicity against human KM12 cells assessed as cell growth at 10^-4 M after 24 hrs by SRB assay; type: functional; conditions: KM12, 24 h, read-out: Activity
MDA-MB-231 = assay: Cytotoxicity against human MDA-MB-231 cells assessed as cell growth at 10^-4 M after 24 hrs by SRB assay; type: functional; conditions: MDA-MB-231, 24 h, read-out: Activity
[16] = Cytotoxicity against human SNB19 cells assessed as cell growth at 10^-4 M after 24 hrs by SRB assay; type: functional; conditions: SNB-19, 24 h, read-out: Activity
[17] = Cytotoxicity against human OVCAR4 cells after 24 hrs by SRB assay; type: functional; conditions: OVCAR-4, 24 h
[18] = Cytotoxicity against human PC3 cells assessed as cell growth at 10^-4 M after 24 hrs by SRB assay; type: functional; conditions: PC-3, 24 h, read-out: Activity
[19] = Cytotoxicity against human PC3 cells assessed as cell growth at 10^-8 M after 24 hrs by SRB assay; type: functional; conditions: PC-3, 24 h, read-out: Activity
NCI-H522 = assay: Cytotoxicity against human NCI-H522 cells assessed as cell growth at 10^-7 M after 24 hrs by SRB assay; type: functional; conditions: NCI-H522, 24 h, read-out: Activity
CCRF-CEM = assay: Cytotoxicity against human CCRF-CEM cells assessed as cell growth at 10^-5 M after 24 hrs by SRB assay; type: functional; conditions: read-out: Activity
NCI-H322M = assay: Cytotoxicity against human NCI-H322M cells assessed as cell growth at 10^-4 M after 24 hrs by SRB assay; type: functional; conditions: read-out: Activity
NCI-H460 [20] = assay: Cytotoxicity against human NCI-H460 cells assessed as cell growth at 10^-4 M after 24 hrs by SRB assay; type: functional; conditions: NCI-H460, 24 h, read-out: Activity
[21] = Cytotoxicity against human HCC2998 cells assessed as cell growth at 10^-4 M after 24 hrs by SRB assay; type: functional; conditions: HCC 2998, 24 h, read-out: Activity
KM12 [22] = assay: Cytotoxicity against human KM12 cells assessed as cell growth at 10^-5 M after 24 hrs by SRB assay; type: functional; conditions: KM12, 24 h, read-out: Activity
[23] = Cytotoxicity against human MOLT4 cells after 24 hrs by SRB assay; type: functional; conditions: MOLT-4, 24 h
NCI-H23 = assay: Cytotoxicity against human NCI-H23 cells assessed as cell growth at 10^-4 M after 24 hrs by SRB assay; type: functional; conditions: NCI-H23, 24 h, read-out: Activity
[24] = Cytotoxicity against human OVCAR8 cells assessed as cell growth at 10^-8 M after 24 hrs by SRB assay; type: functional; conditions: OVCAR-8, 24 h, read-out: Activity
[25] = Cytotoxicity against human Caki1 cells assessed as cell growth at 10^-6 M after 24 hrs by SRB assay; type: functional; conditions: CAKI-1, 24 h, read-out: Activity
[26] = Cytotoxicity against human PC3 cells assessed as growth inhibition at 10 uM after 24 hrs by SRB assay; type: functional; conditions: PC-3, 24 h, read-out: GI
[27] = read-out: LC50 (the source's name)
[28] = read-out: pLC50 (the source's name) (converted)

SMILES: O=C(Nc1cc(-c2cccnc2)nc(NCCCN2CCOCC2)n1)c1cc(Br)cc(C(F)(F)F)c1
- growth at 0.01 µM [1]: 97%
- GI50 ([2]; read-out: GI50): 3.15 µM
- CC50 [2, 27]: > 100 µM
- TGI ([2]; read-out: TGI): 9.69 µM
- GI50 ([2]; read-out: pGI50 (converted)): 3.16 µM
- CC50 [2, 28]: > 100 µM
- TGI ([2]; read-out: pTGI (converted)): 9.77 µM
- growth at 0.01 µM (A498): 91%
- growth at 1 µM (NCI-H460 [3]): 99%
- growth at 0.1 µM [4]: 93%
- growth at 100 µM [5]: -99%
- growth at 0.1 µM [6]: 108%
- growth at 0.01 µM (SK-MEL-5): 95%
- growth at 1 µM (KM12 [7]): 96%
- GI50 ([8]; read-out: GI50): 1.77 µM
- CC50 [8, 27]: 6.79 µM
- TGI ([8]; read-out: TGI): 3.47 µM
- GI50 ([8]; read-out: pGI50 (converted)): 1.78 µM
- CC50 [8, 28]: 6.76 µM
- TGI ([8]; read-out: pTGI (converted)): 3.47 µM
- growth at 0.1 µM (K562): 91%
- growth at 1 µM [9]: 74%
- growth at 10 µM (NCI-H226): 49%
- growth at 0.1 µM [10]: 91%
- growth at 0.01 µM [11]: 97%
- growth at 0.1 µM [12]: 102%
- growth at 10 µM [13]: -61%
- growth at 0.1 µM [14]: 99%
- growth at 100 µM (KM12 [15]): -90%
- growth at 100 µM (MDA-MB-231): -84%
- growth at 100 µM [16]: -84%
- GI50 ([17]; read-out: GI50): 3.26 µM
- CC50 [17, 27]: 39.9 µM
- TGI ([17]; read-out: TGI): 14.5 µM
- GI50 ([17]; read-out: pGI50 (converted)): 3.24 µM
- CC50 [17, 28]: 39.8 µM
- TGI ([17]; read-out: pTGI (converted)): 14.5 µM
- growth at 100 µM [18]: -93%
- growth at 0.01 µM [19]: 93%
- growth at 0.1 µM (NCI-H522): 92%
- growth at 10 µM (CCRF-CEM): 6%
- growth at 100 µM (NCI-H322M): -90%
- growth at 100 µM (NCI-H460 [20]): -75%
- growth at 100 µM [21]: -97%
- growth at 10 µM (KM12 [22]): 14%
- GI50 ([23]; read-out: GI50): 3.63 µM
- CC50 [23, 27]: 59.6 µM
- TGI ([23]; read-out: TGI): 13.1 µM
- GI50 ([23]; read-out: pGI50 (converted)): 3.63 µM
- CC50 [23, 28]: 60.3 µM
- TGI ([23]; read-out: pTGI (converted)): 13.2 µM
- growth at 100 µM (NCI-H23): -85%
- growth at 0.01 µM [24]: 106%
- growth at 1 µM [25]: 82%

SMILES: COCCCNc1nc(NC(=O)c2cc(Br)cc(C(F)(F)F)c2)cc(-c2cccnc2)n1
- inhibition of growth at 10 µM [26]: 29.4%
